These are literature values, as cited in patent US20120157405A1, “Methods and Compositions for the Treatment of "Burning Feet Syndrome"” (priority 2010, published 2012).

Read-outs that look alike come from different tables or passages of the source.

The subject of data set [1] is complications among the major targets of diabetes. To be noted: in vivo.
Data set [2] relates to symptomatic diabetic polyneuropathy.
Data set [3] shares this test system. To be noted: symptomatic diabetic polyneuropathy and compressive radiculopathy syndrome from disc-nerve root conflict.
In a further data set the test system is neuropathic pain. To be noted: double-blind study.
In data set [4] the test system is diabetic neuropathy. To be noted: double-blind trial.
Data set [5] relates to jejunal transport of water, Na and Cl. To be noted: in vivo jejunal perfusion.
Data set [6] relates to Diabetes-Induced Oxidative Stress In Gastrointestinal Tissues. To be noted: exogenously administered, diabetic rats.
The next data set has as its system skin irritation. To be noted: topical adjunct skin care.
For data set [7], the system named is nerve conduction and function. To be noted: 900 mg, six-month study.
A further data set deals with peripheral neuropathy. To be noted: daily high-dose supplementation for two years, person.
The next data set concerns mild diabetic neuropathy. To be noted: 480 mg daily, after 12 months.
Data set [8] concerns neuropathy associated with some chemotherapy drugs. To be noted: two studies.
The subject of data set [9] is diabetic neuropathy. To be noted: over a one-year period.
For data set [10], the system named is chemically induced diabetic rats.
In data set [11] the test system is neuropathy associated with diabetes.
The subject of data set [12] is cardiac autonomic neuropathy. To be noted: people with diabetes.
The subject of data set [13] is “Burning Feet Syndrome”. To be noted: 53 cases; parenteral calcium pantothenate given after the other vitamins.
The test system of data set [14] is streptozotocin-induced diabetic rats. To be noted: 1.4 to 1.5 g/kg body weight, 7 weeks.
Data set [15] relates to diabetic neuropathy. To be noted: animal studies.
Data set [16] has as its system “Burning Feet Syndrome”. To be noted: 6 mg intramuscular injections.
Data set [17] concerns peripheral neuropathy symptoms. To be noted: niacin alone.
In data set [18] the test system is painful peripheral diabetic neuropathy. To be noted: 320 mg/day compared to 150 mg/day, over 6 weeks.
In data set [19] the test system is severe diabetic peripheral neuropathy.
The subject of the next data set is vitamin B12 deficiency. To be noted: oral supplementation only.
Data set [20] concerns sciatic pain caused by herniated disc.
Setting [21] is: after one year of treatment, all patients.

Take `NCCS(=O)(=O)O` [taurine]: the “severity of complications of diabetes (retina, neuron, kidney)” value in [1] is given as “diminishes the severity of complications”.

As for `O=C(O)CCCCC1CCSS1` (stereo not drawn) [Alpha-lipoic acid], the “time at which TSS improvement was noted” value is on record as 2 weeks in [2] (oral 600 milligrams and 1200 milligrams); “the end of the first week” in data set [2] (oral 1800 milligrams). In addition, the side effects result in [2] (oral 600 to 1800 milligrams) is reported as “dose-dependent increase in the incidence of nausea”. Besides, in data set [2] (oral therapy, 600 to 1800 milligrams), the “Total Symptom Score (TSS)” value is recorded as “significant improvement”. In [3], the “pain, paresthesia, and numbness” value was “reduced the pain, paresthesia, and numbness”. Moreover, in the data set with neuropathic pain, the “nerve functionality and neuropathic pain” value is “helped the recovery of nerve functionality and decrease neuropathic pain”. Besides, the acute microcirculation occlusion entry in the data set on microcirculation (in vivo) is “significantly improve”. Further, the microcirculation entry in the data set with microcirculation (patients with diabetic polyneuropathy) is listed as “significant improvement in microcirculation”. Further, the “sensory symptoms and pain of diabetic neuropathy” value with diabetic neuropathy [4] is “rapidly and significantly reduces sensory symptoms and pain of diabetic neuropathy”.

For the compound `N=C(N)NCCC[C@H](N)C(=O)O` [L-arginine], the “jejunal transport of water, Na and Cl” value in data set [5] is given as “dose-dependent pro-secretor effect”. Besides, the “oxidative stress in the gastrointestinal tract” value in [6] is recorded as “decrease the oxidative stress in the gastrointestinal tract”.

Take `CC(C)(CO)[C@@H](O)C(=O)NCCCO` [dexpanthenol]: the “symptoms of skin irritation (dryness, roughness, scaling, pruritus, erythema, erosion/fissure)” value with skin irritation is reported as “considerably improves symptoms of skin irritation”.

Take vitamin E: the nerve conduction entry in data set [7] was “mild to moderate defective nerve conduction was improved”. The “disease progression and neuropathy” value in the data set on peripheral neuropathy is “slowed disease progression and produced significant improvement in their neuropathy”.

`CCCCC/C=C\C/C=C\C/C=C\CCCCC(=O)O` [GLA, gamma linolenic acid]: in the data set on mild diabetic neuropathy, the “outcome versus placebo group” value is listed as “significantly better than the placebo group”.

On to `CC(=O)O[C@H](CC(=O)[O-])C[N+](C)(C)C` [acetyl-L-carnitine], for which, in the data set on diabetic animals (diabetic animals), the “effects on glucose, insulin, or free fatty acids levels” value was “without any adverse effects” and the nerve conduction velocity result is reported as “maintained near normal nerve conduction velocity”. Also, the nerve regeneration entry with diabetic animals (diabetic nerve degeneration and neuropathy, after experimental injury) is recorded as “accelerated nerve regeneration”. Further, in data set [8], the chemotherapy-associated neuropathy result is reported as “can limit the neuropathy”. The “nerve conduction velocity and pain” value in the data set with diabetic neuropathy [9] was “improved nerve conduction velocity and reduced pain”. Besides, the nerve dysfunctions result in [10] is “A number of nerve dysfunctions were corrected”. Also, in data set [11] (52 weeks), the “sural nerve fiber numbers and regenerating nerve fiber clusters” value was “significant improvement”. For the same compound, in data set [11] (both studies), the vibratory perception result is on record as “improved”. The pain entry in data set [11] (daily doses of 500 mg and 1000 mg, 52 weeks) is recorded as “significant reductions in pain”. Besides, the cardiac autonomic neuropathy entry in [12] is on record as “appeared to help prevent or slow cardiac autonomic neuropathy”.

As to calcium pantothenate, in the data set on “Burning Feet Syndrome” [13], the “outcome of treatment of “Burning Feet Syndrome”” value is on record as “cure”.

On to `COc1cc(/C=C/C(=O)CC(=O)/C=C/c2ccc(O)c(OC)c2)ccc1O` [curcumin], for which the “intracellular superoxide anion (O2) production” value in the data set on DM arterioles (DM arterioles, hydroethidine probe, low or high doses) was “significantly reduced”. In the data set on DM arterioles (high dose), the “diabetes-induced vascular PKC-β11 expression” value was “diminished”. In addition, the “Acetylcholine (ACh) responses” value with DM arterioles (low and high doses (30 and 300 mg/kg)) is listed as “significantly improved”.

Regarding `CC(=O)N[C@@H](CS)C(=O)O` [NAC, N-Acetylcysteine], the “effect on diabetic neuropathy” value in data set [14] is on record as “protective effects”. Besides, the neuropathy result with diabetic neuropathy [15] is “can inhibit diabetic neuropathy and protect against neuropathies caused by chemotherapy drugs”.

With `Cc1cc2nc3c(=O)[nH]c(=O)nc-3n(C[C@H](O)[C@H](O)[C@H](O)CO)c2cc1C` [riboflavin], the “outcome of treatment of “Burning Feet Syndrome”” value in the data set on “Burning Feet Syndrome” [13] is “failed”. In the data set with “Burning Feet Syndrome” [16], the adverse reactions entry is given as “no reported adverse reactions” and the “time until the burning pain subsided” value is reported as at most 3 days.

`O=C(O)c1cccnc1` [niacin]: the peripheral neuropathy symptoms entry in [17] is listed as “does not help peripheral neuropathy symptoms”.

As for `C/C(=C(\CCOP(=O)(O)O)SC(=O)c1ccccc1)N(C=O)Cc1cnc(C)nc1N` [benfotiamine], in [18], the therapeutic effectiveness result is on record as “most effective in large doses”. In addition, the alcoholic polyneuropathy result in the data set with alcoholic polyneuropathy (benfotiamine versus combination with vitamin B6 and B12) is on record as “significant improvement”. Moreover, in the data set on alcoholic polyneuropathy (double-blind study), the adverse effects result is given as “no therapy-specific adverse effects”; the pain and co-ordination entry is listed as “improvement was evident”.

Turning to `O=C(O)CCCC[C@@H]1SC[C@@H]2NC(=O)N[C@@H]21` [biotin], in data set [19] (setting [21]), the paresthesias result was “free of paresthesias” and the “walking distance without help” value is “more than 300 meters”. For the same compound, the “symptoms of peripheral neuropathy” value in [19] (within four to eight weeks after biotin administration) was “objective improvement”.

As for `Cc1ncc(C[n+]2csc(CCO)c2C)c(N)n1` [thiamine], the “outcome of treatment of “Burning Feet Syndrome”” value with “Burning Feet Syndrome” [13] is reported as “failed”.

For vitamin B12, the “patients with low B12 levels whose deficiency was corrected” value with vitamin B12 deficiency is around 50%.

On to `O=C(O)CCCCC1CCSS1` (centres unmarked) [Thioctic acid], for which the “treatment of sciatic pain” value in data set [20] is given as “appears to be effective”.

On to `O=C(O)c1cccnc1` [nicotinic acid], for which the “outcome of treatment of “Burning Feet Syndrome”” value in the data set on “Burning Feet Syndrome” [13] is reported as “failed”.
